Test results published in ChEMBL document CHEMBL1909046, “DrugMatrix in vitro pharmacology data”.

How the values were obtained:
[1] = target: Cytochrome P450 2D6 (Homo sapiens, UniProt P10635); settings: bti-tn-5b1-4; further: in other assays of this panel Not Active means under 50% inhibition at 10 µM
[2] = target: Sodium-dependent noradrenaline transporter (Homo sapiens, UniProt P23975); test: DRUGMATRIX: Norepinephrine Transporter radioligand binding (ligand: [125I] RTI-55); format: cell membranes, MDCK, Membrane; settings: mdck; Not Active = under 50% inhibition at 10 µM
Sequence of Sodium-dependent noradrenaline transporter (P23975 whole entry): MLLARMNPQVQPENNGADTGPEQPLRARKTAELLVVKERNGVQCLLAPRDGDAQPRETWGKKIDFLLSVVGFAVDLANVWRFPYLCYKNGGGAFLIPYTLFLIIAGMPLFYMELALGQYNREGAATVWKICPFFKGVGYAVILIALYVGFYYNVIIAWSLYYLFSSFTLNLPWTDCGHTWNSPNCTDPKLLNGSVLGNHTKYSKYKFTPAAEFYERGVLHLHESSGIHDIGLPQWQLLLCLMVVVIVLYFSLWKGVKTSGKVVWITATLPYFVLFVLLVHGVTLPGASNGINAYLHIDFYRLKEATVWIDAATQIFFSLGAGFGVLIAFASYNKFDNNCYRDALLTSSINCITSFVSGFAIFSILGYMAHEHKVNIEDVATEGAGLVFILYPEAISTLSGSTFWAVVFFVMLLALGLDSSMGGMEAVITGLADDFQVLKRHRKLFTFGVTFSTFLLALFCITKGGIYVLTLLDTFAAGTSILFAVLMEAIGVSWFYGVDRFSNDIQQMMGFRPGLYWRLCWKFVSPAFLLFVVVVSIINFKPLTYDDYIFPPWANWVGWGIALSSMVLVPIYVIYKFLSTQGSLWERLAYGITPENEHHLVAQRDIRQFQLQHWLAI

[3] = target: D(3) dopamine receptor (Homo sapiens, UniProt P35462); test: DRUGMATRIX: Dopamine D3 radioligand binding (ligand: [3H] Spiperone); format: cell membranes, CHO, Membrane; settings: cho
Sequence of D(3) dopamine receptor (P35462 whole entry): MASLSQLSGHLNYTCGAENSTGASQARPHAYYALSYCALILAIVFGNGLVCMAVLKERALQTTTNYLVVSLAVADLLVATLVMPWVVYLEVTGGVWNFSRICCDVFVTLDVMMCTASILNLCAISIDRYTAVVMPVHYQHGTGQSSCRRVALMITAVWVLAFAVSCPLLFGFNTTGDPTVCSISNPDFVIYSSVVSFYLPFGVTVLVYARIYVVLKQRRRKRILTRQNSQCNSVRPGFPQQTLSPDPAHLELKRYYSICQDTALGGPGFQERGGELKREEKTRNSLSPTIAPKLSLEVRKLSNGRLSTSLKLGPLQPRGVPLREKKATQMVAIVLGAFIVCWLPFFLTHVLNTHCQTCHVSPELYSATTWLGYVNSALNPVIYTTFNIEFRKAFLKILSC

[4] = target: Cytochrome P450 2C19 (Homo sapiens, UniProt P33261); settings: bti-tn-5b1-4; further: in other assays of this panel Not Active means under 50% inhibition at 10 µM
Sequence of Cytochrome P450 2C19 (P33261 whole entry): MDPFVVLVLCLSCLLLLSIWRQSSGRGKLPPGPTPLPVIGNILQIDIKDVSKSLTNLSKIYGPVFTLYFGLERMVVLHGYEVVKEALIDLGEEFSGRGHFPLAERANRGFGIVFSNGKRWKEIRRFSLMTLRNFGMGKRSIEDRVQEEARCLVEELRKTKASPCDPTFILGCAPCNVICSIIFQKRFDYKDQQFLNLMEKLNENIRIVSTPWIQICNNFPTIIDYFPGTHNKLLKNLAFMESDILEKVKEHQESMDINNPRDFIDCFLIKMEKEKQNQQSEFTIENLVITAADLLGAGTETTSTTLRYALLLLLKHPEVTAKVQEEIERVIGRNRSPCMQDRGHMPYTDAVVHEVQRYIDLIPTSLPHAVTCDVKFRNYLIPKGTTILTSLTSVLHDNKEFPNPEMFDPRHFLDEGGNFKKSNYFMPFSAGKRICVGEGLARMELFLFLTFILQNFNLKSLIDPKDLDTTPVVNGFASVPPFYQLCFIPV

[5] = target: Voltage-gated inwardly rectifying potassium channel KCNH2 (Homo sapiens, UniProt Q12809); settings: hek293; further: in other assays of this panel Not Active means under 50% inhibition at 10 µM
Sequence of Voltage-gated inwardly rectifying potassium channel KCNH2 (Q12809 whole entry): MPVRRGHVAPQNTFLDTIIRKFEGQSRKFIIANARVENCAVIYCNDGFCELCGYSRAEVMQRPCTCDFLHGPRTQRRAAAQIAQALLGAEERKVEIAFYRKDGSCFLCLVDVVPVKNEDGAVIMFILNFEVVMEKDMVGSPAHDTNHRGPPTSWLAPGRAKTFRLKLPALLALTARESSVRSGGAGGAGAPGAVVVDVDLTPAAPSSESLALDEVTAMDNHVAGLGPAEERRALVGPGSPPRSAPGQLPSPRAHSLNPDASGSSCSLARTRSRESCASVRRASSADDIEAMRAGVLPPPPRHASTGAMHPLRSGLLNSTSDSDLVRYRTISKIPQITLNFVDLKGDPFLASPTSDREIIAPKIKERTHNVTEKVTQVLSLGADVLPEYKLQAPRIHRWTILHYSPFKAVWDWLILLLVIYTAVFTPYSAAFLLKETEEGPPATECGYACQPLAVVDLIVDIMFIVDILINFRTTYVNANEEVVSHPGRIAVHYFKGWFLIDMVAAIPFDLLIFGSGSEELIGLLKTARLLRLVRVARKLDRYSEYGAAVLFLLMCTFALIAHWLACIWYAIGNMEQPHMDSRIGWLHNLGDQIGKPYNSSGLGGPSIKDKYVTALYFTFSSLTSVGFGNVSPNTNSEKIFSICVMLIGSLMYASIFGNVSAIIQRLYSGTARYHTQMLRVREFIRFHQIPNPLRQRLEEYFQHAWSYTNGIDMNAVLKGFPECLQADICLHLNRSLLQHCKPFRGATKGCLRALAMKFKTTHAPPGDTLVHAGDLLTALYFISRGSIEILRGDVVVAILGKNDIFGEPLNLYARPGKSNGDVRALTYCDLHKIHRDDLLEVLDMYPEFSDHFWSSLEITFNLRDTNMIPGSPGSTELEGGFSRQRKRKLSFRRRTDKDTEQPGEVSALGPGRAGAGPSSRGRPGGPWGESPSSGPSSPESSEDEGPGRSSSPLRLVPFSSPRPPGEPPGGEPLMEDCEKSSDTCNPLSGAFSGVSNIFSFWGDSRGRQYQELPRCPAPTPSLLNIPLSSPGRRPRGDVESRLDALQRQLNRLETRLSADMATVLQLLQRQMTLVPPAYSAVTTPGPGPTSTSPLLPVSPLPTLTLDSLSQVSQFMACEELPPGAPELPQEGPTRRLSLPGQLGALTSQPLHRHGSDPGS

[6] = target: Cytochrome P450 2E1 (Homo sapiens, UniProt P05181); settings: bti-tn-5b1-4; further: in other assays of this panel Not Active means under 50% inhibition at 10 µM
Sequence of Cytochrome P450 2E1 (P05181 whole entry): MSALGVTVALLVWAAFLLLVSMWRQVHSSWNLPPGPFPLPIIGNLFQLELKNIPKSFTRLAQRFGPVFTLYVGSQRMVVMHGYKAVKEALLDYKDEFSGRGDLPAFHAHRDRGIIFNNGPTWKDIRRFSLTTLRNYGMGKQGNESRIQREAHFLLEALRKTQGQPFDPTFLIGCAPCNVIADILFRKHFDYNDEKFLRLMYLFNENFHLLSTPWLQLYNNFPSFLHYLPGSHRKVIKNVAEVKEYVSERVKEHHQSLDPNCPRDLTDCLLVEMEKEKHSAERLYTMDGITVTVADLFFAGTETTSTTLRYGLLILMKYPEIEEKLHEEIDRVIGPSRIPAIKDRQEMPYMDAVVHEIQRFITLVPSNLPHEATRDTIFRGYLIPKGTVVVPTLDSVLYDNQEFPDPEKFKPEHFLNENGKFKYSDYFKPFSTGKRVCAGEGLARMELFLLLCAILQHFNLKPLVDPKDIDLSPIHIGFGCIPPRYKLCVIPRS

[7] = target: Mu-type opioid receptor (Homo sapiens, UniProt P35372); test: DRUGMATRIX: Opiate mu (OP3, MOP) radioligand binding (ligand: [3H] Diprenorphine); format: cell membranes, CHO-K1, Membrane; settings: cho-k1; Not Active = under 50% inhibition at 10 µM
Sequence of Mu-type opioid receptor (P35372 whole entry): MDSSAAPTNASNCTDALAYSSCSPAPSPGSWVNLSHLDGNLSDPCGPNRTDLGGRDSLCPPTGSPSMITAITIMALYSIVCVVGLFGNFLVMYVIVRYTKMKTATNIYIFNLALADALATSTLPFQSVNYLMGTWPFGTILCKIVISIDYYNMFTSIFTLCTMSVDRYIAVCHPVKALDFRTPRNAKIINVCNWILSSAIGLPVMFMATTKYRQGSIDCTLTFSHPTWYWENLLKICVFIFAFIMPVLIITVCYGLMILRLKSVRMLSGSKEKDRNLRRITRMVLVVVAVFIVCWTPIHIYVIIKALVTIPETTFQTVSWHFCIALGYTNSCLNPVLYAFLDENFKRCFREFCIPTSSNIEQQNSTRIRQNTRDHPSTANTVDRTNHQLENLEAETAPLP

Sequence of Cytochrome P450 2D6 (P10635 whole entry): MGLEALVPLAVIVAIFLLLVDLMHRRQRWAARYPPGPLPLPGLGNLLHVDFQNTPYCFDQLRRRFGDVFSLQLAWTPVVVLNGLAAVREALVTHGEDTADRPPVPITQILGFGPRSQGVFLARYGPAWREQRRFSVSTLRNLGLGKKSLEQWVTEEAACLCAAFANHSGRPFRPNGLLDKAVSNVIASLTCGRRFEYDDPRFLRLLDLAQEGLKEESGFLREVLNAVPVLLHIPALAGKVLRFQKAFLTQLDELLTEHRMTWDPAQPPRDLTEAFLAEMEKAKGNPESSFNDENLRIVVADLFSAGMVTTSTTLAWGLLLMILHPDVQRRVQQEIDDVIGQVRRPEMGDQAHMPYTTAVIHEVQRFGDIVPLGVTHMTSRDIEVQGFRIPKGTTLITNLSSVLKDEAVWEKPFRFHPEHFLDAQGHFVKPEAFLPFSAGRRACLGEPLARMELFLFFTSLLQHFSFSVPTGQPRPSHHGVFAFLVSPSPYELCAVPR

CO[C@@H]1[C@@H](OC)[C@H](C)[C@@](O)(CC(=O)O)O[C@H]1[C@H](C)[C@H]1O[C@@]2(CC[C@@](C)([C@H]3CC[C@@](C)([C@@H]4O[C@@H]([C@H]5O[C@](C)(O)[C@H](C)C[C@@H]5C)C[C@@H]4O[C@@H]4C[C@H](OC)[C@@H](OC)[C@H](C)O4)O3)O2)C[C@H](O)[C@H]1C.N [MADURAMICIN]
Not Active: IC50 [1] | Ki [1] | IC50 [2] | IC50 [3] | IC50 [4] | Ki [4] | IC50 [5] | Ki [5] | IC50 [6] | Ki [6] | IC50 [7]

Cc1nnc(NS(=O)(=O)c2ccc(N)cc2)s1 [SULFAMETHIZOLE]
Not Active: IC50 [1] | Ki [1] | IC50 [2] | IC50 [3] | IC50 [4] | Ki [4] | IC50 [5] | Ki [5] | IC50 [6] | Ki [6] | IC50 [7]

Cc1cnc(NC(=O)C2=C(O)c3ccccc3S(=O)(=O)N2C)s1 [MELOXICAM]
Not Active: IC50 [1] | Ki [1] | IC50 [2] | IC50 [3] | IC50 [4] | Ki [4] | IC50 [5] | Ki [5] | IC50 [6] | Ki [6] | IC50 [7]

Cc1cccc(C)c1NC(=O)C(C)N (stereo not drawn) [TOCAINIDE]
Not Active: IC50 [1] | Ki [1] | IC50 [2] | IC50 [3] | IC50 [4] | Ki [4] | IC50 [5] | Ki [5] | IC50 [6] | Ki [6] | IC50 [7]

COC(=O)Nc1nc2ccc(C(=O)c3ccccc3)cc2[nH]1 [MEBENDAZOLE]
Not Active: IC50 [1] | Ki [1] | IC50 [2] | IC50 [3] | IC50 [4] | Ki [4] | IC50 [5] | Ki [5] | IC50 [6] | Ki [6] | IC50 [7]

Cc1ccc(Cl)c(Nc2ccccc2C(=O)O)c1Cl [MECLOFENAMIC ACID]
Not Active: IC50 [1] | Ki [1] | IC50 [2] | IC50 [3] | IC50 [4] | Ki [4] | IC50 [5] | Ki [5] | IC50 [6] | Ki [6] | IC50 [7]

CC(=O)O[C@]1(C(C)=O)CC[C@H]2[C@@H]3C[C@H](C)C4=CC(=O)CC[C@]4(C)[C@H]3CC[C@@]21C [MEDROXYPROGESTERONE ACETATE]
Not Active: IC50 [1] | Ki [1] | IC50 [2] | IC50 [3] | IC50 [4] | Ki [4] | IC50 [5] | Ki [5] | IC50 [6] | Ki [6] | IC50 [7]

CC(O)C(=O)O (stereo not drawn) [LACTIC ACID]
Not Active: IC50 [1] | Ki [1] | IC50 [2] | IC50 [3] | IC50 [4] | Ki [4] | IC50 [5] | Ki [5] | IC50 [6] | Ki [6] | IC50 [7]

Cc1ccnc(NS(=O)(=O)c2ccc(N)cc2)n1 [SULFAMERAZINE]
Not Active: IC50 [1] | Ki [1] | IC50 [2] | IC50 [3] | IC50 [4] | Ki [4] | IC50 [5] | Ki [5] | IC50 [6] | Ki [6] | IC50 [7]

O=C(OC[C@H]1O[C@@H](OC(=O)c2cc(O)c(O)c(OC(=O)c3cc(O)c(O)c(O)c3)c2)[C@H](OC(=O)c2cc(O)c(O)c(OC(=O)c3cc(O)c(O)c(O)c3)c2)[C@@H](OC(=O)c2cc(O)c(O)c(OC(=O)c3cc(O)c(O)c(O)c3)c2)[C@@H]1OC(=O)c1cc(O)c(O)c(OC(=O)c2cc(O)c(O)c(O)c2)c1)c1cc(O)c(O)c(OC(=O)c2cc(O)c(O)c(O)c2)c1 [TANNIC ACID]
Not Active: IC50 [1] | Ki [1] | IC50 [2] | IC50 [3] | IC50 [4] | Ki [4] | IC50 [5] | Ki [5] | IC50 [6] | Ki [6] | IC50 [7]

CC[C@@]1(O)C(=O)OCc2c1cc1n(c2=O)Cc2cc3c(CN(C)C)c(O)ccc3nc2-1 [TOPOTECAN]
Not Active: IC50 [1] | Ki [1] | IC50 [2] | IC50 [3] | IC50 [4] | Ki [4] | IC50 [5] | Ki [5] | IC50 [6] | Ki [6] | IC50 [7]

C=CCc1ccc2c(c1)OCO2 [SAFROLE]
Not Active: IC50 [1] | Ki [1] | IC50 [2] | IC50 [3] | IC50 [4] | Ki [4] | IC50 [5] | Ki [5] | IC50 [6] | Ki [6] | IC50 [7]

CS(=O)(=O)c1ccc(C2=C(c3ccccc3)C(=O)OC2)cc1 [ROFECOXIB]
Not Active: IC50 [1] | Ki [1] | IC50 [2] | IC50 [3] | IC50 [4] | Ki [4] | IC50 [5] | Ki [5] | IC50 [6] | Ki [6] | IC50 [7]

Cc1cn([C@H]2C=C[C@@H](CO)O2)c(=O)[nH]c1=O [STAVUDINE]
Not Active: IC50 [1] | Ki [1] | IC50 [2] | IC50 [3] | IC50 [4] | Ki [4] | IC50 [5] | Ki [5] | IC50 [6] | Ki [6] | IC50 [7]

C[C@]12CCC(=O)C[C@@H]1CC[C@@H]1[C@@H]2CC[C@]2(C)[C@@H](O)CC[C@@H]12 [STANOLONE]
Not Active: IC50 [1] | Ki [1] | IC50 [2] | IC50 [3] | IC50 [4] | Ki [4] | IC50 [5] | Ki [5] | IC50 [6] | Ki [6] | IC50 [7]

CC1(C)[C@H](C(=O)O)N2C(=O)C[C@H]2S1(=O)=O [SULBACTAM]
Not Active: IC50 [1] | Ki [1] | IC50 [2] | IC50 [3] | IC50 [4] | Ki [4] | IC50 [5] | Ki [5] | IC50 [6] | Ki [6] | IC50 [7]

CC(N)C12CC3CC(CC(C3)C1)C2 (stereo not drawn) [RIMANTADINE]
Not Active: IC50 [1] | Ki [1] | IC50 [2] | IC50 [3] | IC50 [4] | Ki [4] | IC50 [5] | Ki [5] | IC50 [6] | Ki [6] | IC50 [7]

CO[C@@]12[C@H](COC(N)=O)C3=C(C(=O)C(C)=C(N)C3=O)N1C[C@@H]1N[C@@H]12 [MITOMYCIN]
Not Active: IC50 [1] | Ki [1] | IC50 [2] | IC50 [3] | IC50 [4] | Ki [4] | IC50 [5] | Ki [5] | IC50 [6] | Ki [6] | IC50 [7]
